# Measured values published in paper PMC6277767, “Broad and Region-Specific Impacts of the Synthetic Cannabinoid CP 55,940 in Adolescent and Adult Female Mouse Brains” (Frontiers in Molecular Neuroscience, 2018).
# Test system: CD1 female mouse brain lipidome
# Experiment: Brain-region lipid levels (HPLC/MS/MS lipidomics) 2 h after single i.p. 3 mg/kg CP 55,940 vs vehicle
# Assay type: in vivo
# Design: N-arachidonoyl phenylalanine level, Mean / N-stearoyl tryptophan level, Mean / N-stearoyl proline level, Mean / N-stearoyl leucine level, Mean / N-stearoyl phenylalanine level, Mean / N-stearoyl serine level, Mean / N-stearoyl methionine level, Mean: unit: moles per gram
# Experimental: The Bloomington Institutional Animal Care and Use Committee of Indiana University reviewed and approved the animal procedures. Female mice from the CD1 strain were utilized to match our study examining THC’s effects on the brain lipidome ([Leishman et al., 2018]). Mice were given a single i.p. injection of either 3 mg/kg CP or 1:1:18 cremophor:ethanol:saline vehicle (please refer to the section “3 mg/kg CP Is Relevant for Synthetic Cannabinoid Abuse and Has Stronger Effects on the Female Mouse Brain Lipidome During Adolescence” for a justification of dose and use of female mice). Three different age groups were given injections: PND 35 and PND 50 adolescents, and adult mice (PND 113). At least eight mice in each age group received CP and at least eight received vehicle. Matching the THC study time course ([Leishman et al., 2018]), mice were sacrificed via rapid decapitation 2 h after injection. Brains were immediately removed and flash-frozen in liquid nitrogen, and then stored at -80°C until dissections were performed. Brains were dissected on an ice-cold dissection plate into the following regions: STR, HIPP, CER, THAL, CTX, HYP, MID, and STEM. These abbreviations for these brain areas will be used exclusively when discussing the results generated by these specific dissections. Each dissected area was immediately placed in liquid nitrogen and then stored at -80°C until used for lipid extraction.
# Tissue extracts were performed as previously described ([Bradshaw et al., 2006]; [Stuart et al., 2013]; [Raboune et al., 2014]; [Leishman et al., 2016a],[b], [2017], [2018]). First, samples were shock frozen in liquid nitrogen, weighed, and transferred to a centrifuge tube. The mass of the largest sample was multiplied by 50 to determine how many milliliters of HPLC-grade methanol (Fisher, Fair Lawn, NJ, United States) to add. Then, samples were spiked with 500 pmol deuterium-labeled NAGly (d8NAGly; Cayman Chemical, Ann Arbor, MI, United States). Samples were placed on ice in darkness for 2 h then individually homogenized and centrifuged at 19,000 × g for 20 min at 20°C. Supernatants were diluted with HPLC water (purified in house) to make a solution of 75% water, 25% supernatant. Lipids were partially purified on C18 solid phase extraction columns (Agilent, Palo Alto, CA, United States). A series of four elutions with 1.5 mL of 60%, 75%, 85%, and 100% methanol were collected ([Stuart et al., 2013]; [Leishman et al., 2016a],[b], [2018]).
# As previously described ([Bradshaw et al., 2006]; [Tan et al., 2006]; [Smoum et al., 2010]; [Stuart et al., 2013]; [Tortoriello et al., 2013]; [Raboune et al., 2014]; [Leishman et al., 2016a],[b], [2017], [2018]), samples were analyzed using an Applied Biosystems API 3000 triple quadrupole mass spectrometer with electrospray ionization (Foster City, CA, United States). Using an Agilent XDB-C18 reversed phase analytical column and optimized mobile phase gradients, 20 μL from each elution were chromatographed. Two Shimadzu 10ADvp pumps (Columbia, MD, United States) provided the pressure for gradient elution. Mobile phase A: 20% methanol, 80% water (v/v) and 1 mM ammonium acetate (Sigma, St. Louis, MO, United States). Mobile phase B: 100% methanol, 1 mM ammonium acetate. Every method run began with 0% mobile phase B, reached 100% mobile phase B flowing at 0.2 mL/min, and gradually returned to 0% mobile phase B.
# This screening library will be referred to as the lipidome when discussing data from this study. HPLC/MS/MS data were analyzed using Analyst software (Applied Biosystems) ([Bradshaw et al., 2006]; [Tan et al., 2006]; [Stuart et al., 2013]; [Tortoriello et al., 2013]; [Raboune et al., 2014]; [Leishman et al., 2016a],[b], [2017], [2018]). Chromatograms (Supplementary Figure 3) were generated by determining the retention time of analytes from the analytical column with a [M-1] or [M+1] parent peak and a fragmentation peak corresponding to the programmed values. […]
# [1] = brainstem, PND 50, 3 mg/kg CP 55,940, one-way ANOVA p .062
# [2] = brainstem, PND35 WT female mice, 3 mg/kg
# [3] = cerebellum, PND 50, 3 mg/kg CP 55,940
# [4] = cerebellum, PND 50 female mice, 3 mg/kg CP 55,940
smiles,measurement,setting,value
"CCCCCCC(C)(C)c1ccc([C@@H]2C[C@H](O)CC[C@H]2CCCO)c(O)c1 [CP 55,940]","2-oleoyl glycerol, Magnitude (x Veh level)","brainstem, PND 50, 3 mg/kg CP 55,940, one-way ANOVA p .046",0.86 x Veh level
same,"2-palmitoyl glycerol, Direction (relative to Veh)",[1],↓
same,"2-palmitoyl glycerol, Magnitude (x Veh level)",[1],0.71 x Veh level
same,"N-arachidonoyl GABA level, Mean",[2],8.01E-12
same,"N-arachidonoyl alanine level, Mean",[2],6.76E-12
same,"N-arachidonoyl ethanolamine level, Mean",[2],2.09E-11
same,"N-arachidonoyl glycine level, Mean",[2],4.63E-11
same,"N-arachidonoyl methionine level, Mean",[2],8.72E-13
same,"N-arachidonoyl phenylalanine level, Mean",[2],9.69E-13
same,"N-docosahexaenoyl GABA level, Mean",[2],2.13E-12
same,"N-docosahexaenoyl alanine level, Mean",[2],4.95E-12
same,"N-docosahexaenoyl ethanolamine level, Mean",[2],4.42E-11
same,"N-docosahexaenoyl glycine level, Mean",[2],2.18E-11
same,"N-docosahexaenoyl leucine level, Mean",[2],5.85E-13
same,"N-docosahexaenoyl phenylalanine level, Mean",[2],8.51E-13
same,"N-linoleoyl GABA level, Mean",[2],8E-13
same,"N-linoleoyl alanine level, Mean",[2],1.32E-12
same,"N-linoleoyl ethanolamine level, Mean",[2],3.37E-11
same,"N-linoleoyl glycine level, Mean",[2],5.99E-12
same,"N-linoleoyl leucine level, Mean",[2],3.47E-13
same,"N-oleoyl GABA level, Mean",[2],4.65E-12
same,"N-oleoyl alanine level, Mean",[2],7.64E-12
same,"N-oleoyl ethanolamine level, Mean",[2],2.04E-10
same,"N-oleoyl glycine level, Mean",[2],2.66E-11
same,"N-oleoyl leucine level, Mean",[2],1.35E-12
same,"N-oleoyl methionine level, Mean",[2],1.16E-12
same,"N-oleoyl phenylalanine level, Mean",[2],1.05E-12
same,"N-palmitoyl GABA level, Mean",[2],7.63E-12
same,"N-palmitoyl alanine level, Mean",[2],8.91E-12
same,"N-palmitoyl ethanolamine level, Mean",[2],1.31E-10
same,"N-palmitoyl glycine level, Mean",[2],4.17E-11
same,"N-palmitoyl leucine level, Mean",[2],2.63E-12
same,"N-palmitoyl methionine level, Mean",[2],1.43E-12
same,"N-palmitoyl phenylalanine level, Mean",[2],2.02E-12
same,"N-stearoyl GABA level, Mean",[2],6.98E-12
same,"N-stearoyl alanine level, Mean",[2],1.31E-11
same,"N-stearoyl ethanolamine level, Mean",[2],3.25E-11
same,"N-stearoyl glycine level, Mean",[2],2.18E-11
same,"N-stearoyl leucine level, Mean",[2],8.28E-13
same,"N-stearoyl methionine level, Mean",[2],1.7E-12
same,"N-stearoyl phenylalanine level, Mean",[2],1.48E-12
same,2-linoleoyl glycerol: Direction (relative to Veh),[3],↓
same,2-linoleoyl glycerol: Magnitude (x Veh level),[3],0.65 x Veh level
same,2-oleoyl glycerol: Direction (relative to Veh),[3],↓
same,2-oleoyl glycerol: Magnitude (x Veh level),[3],0.77 x Veh level
same,2-palmitoyl glycerol: Direction (relative to Veh),[3],↓
same,2-palmitoyl glycerol: Magnitude (x Veh level),[3],0.69 x Veh level
same,6-ketoPGF1α: Direction (relative to Veh),[3],↑
same,6-ketoPGF1α: Magnitude (x Veh level),[3],1.33 x Veh level
same,Arachidonic acid: Direction (relative to Veh),[3],↓
same,Arachidonic acid: Magnitude (x Veh level),[3],0.74 x Veh level
same,Linoleic acid: Direction (relative to Veh),[3],↓
same,Linoleic acid: Magnitude (x Veh level),[3],0.73 x Veh level
same,N-arachidonoyl GABA: Direction (relative to Veh),[3],↓
same,N-arachidonoyl GABA: Magnitude (x Veh level),[3],0.75 x Veh level
same,N-arachidonoyl ethanolamine: Direction (relative to Veh),[3],↓
same,N-arachidonoyl ethanolamine: Magnitude (x Veh level),[3],0.81 x Veh level
same,N-arachidonoyl glycine: Direction (relative to Veh),[3],↓
same,N-arachidonoyl glycine: Magnitude (x Veh level),[3],0.68 x Veh level
same,N-arachidonoyl phenylalanine: Direction (relative to Veh),[3],↓
same,N-arachidonoyl phenylalanine: Magnitude (x Veh level),[3],0.60 x Veh level
same,N-arachidonoyl serine: Direction (relative to Veh),[3],↓
same,N-arachidonoyl serine: Magnitude (x Veh level),[3],0.78 x Veh level
same,N-arachidonoyl taurine: Direction (relative to Veh),[3],↓
same,N-arachidonoyl taurine: Magnitude (x Veh level),[3],0.83 x Veh level
same,N-arachidonoyl tyrosine: Direction (relative to Veh),[3],↓
same,N-arachidonoyl tyrosine: Magnitude (x Veh level),[3],0.73 x Veh level
same,N-docosahexaenoyl phenylalanine: Direction (relative to Veh),[3],↓
same,N-docosahexaenoyl phenylalanine: Magnitude (x Veh level),[3],0.77 x Veh level
same,N-linoleoyl ethanolamine: Direction (relative to Veh),[3],↓
same,N-linoleoyl ethanolamine: Magnitude (x Veh level),[3],0.77 x Veh level
same,N-oleoyl GABA: Direction (relative to Veh),[3],↓
same,N-oleoyl GABA: Magnitude (x Veh level),[3],0.76 x Veh level
same,N-oleoyl ethanolamine: Direction (relative to Veh),[3],↓
same,N-oleoyl ethanolamine: Magnitude (x Veh level),[3],0.85 x Veh level
same,N-oleoyl phenylalanine: Direction (relative to Veh),[3],↑
same,N-oleoyl phenylalanine: Magnitude (x Veh level),[3],1.26 x Veh level
same,N-palmitoyl leucine: Direction (relative to Veh),[3],↑
same,N-palmitoyl leucine: Magnitude (x Veh level),[3],1.63 x Veh level
same,N-palmitoyl valine: Direction (relative to Veh),[3],↑
same,N-palmitoyl valine: Magnitude (x Veh level),[3],1.49 x Veh level
same,Oleic acid: Direction (relative to Veh),[3],↓
same,Oleic acid: Magnitude (x Veh level),[3],0.83 x Veh level
same,PGE2: Direction (relative to Veh),[3],↓
same,PGE2: Magnitude (x Veh level),[3],0.68 x Veh level
same,PGF2α: Direction (relative to Veh),[3],↓
same,PGF2α: Magnitude (x Veh level),[3],0.72 x Veh level
same,"2-arachidonoyl glycerol level, Mean",[4],1.99E-10
same,"2-linoleoyl glycerol level, Mean",[4],1.45E-10
same,"2-oleoyl glycerol level, Mean",[4],1.49E-09
same,"2-palmitoyl glycerol level, Mean",[4],1.57E-09
same,"6-ketoPGF1α level, Mean",[4],6.52E-12
same,"11-OH-THC level, Mean",[4],BDL
same,"11-nor-9-carboxyTHC level, Mean",[4],BDL
same,"Arachidonic acid level, Mean",[4],1.8E-10
same,"Cannabidiol level, Mean",[4],BDL
same,"Linoleic acid level, Mean",[4],1.87E-10
same,"N- stearoyl valine level, Mean",[4],9.25E-14
same,"N-arachidonoyl GABA level, Mean",[4],3.92E-12
same,"N-arachidonoyl dopamine level, Mean",[4],BDL
same,"N-arachidonoyl ethanolamine level, Mean",[4],2.25E-11
same,"N-arachidonoyl glycine level, Mean",[4],1.1E-12
